Experimental data as given in publication PMC3981819, “Signaling Properties and Pharmacological Analysis of Two Sulfakinin Receptors from the Red Flour Beetle, Tribolium castaneum” (PLoS ONE, 2014).

Columns and labels:
Trica-SKR1 [1] = assay: Aequorin-luminescence assay, CHO-WTA11 cells (Gα16) transfected with Trica-SKR1; format: cell-based, Tribolium castaneum; conditions: aequorin bioluminescence
Protocol: (§1) General pharmacological studies were performed in Chinese Hamster Ovary (CHO) WTA11 cells, stably coexpressing apoaequorin, a zeocin resistance gene and the promiscuous Gα16, which couples most agonist-induced GPCRs to the phospholipase C and Ca^2+ pathway irrespective of their natural signaling cascade. CHO-PAM28 cells stably expressing apoaequorin and a puromycin resistance gene but not Gα16 and HEK293T cells (Invitrogen) were used to determine possible effects on Ca^2+ and/or cAMP second messenger systems, respectively. All cell lines were cultured in Dulbecco’s Modified Eagles Medium nutrient mixture F12-Ham (DMEM/F12; Invitrogen) supplemented with 1% penicillin/streptomycin (10000 units/ml penicillin and 10 mg/ml streptomycin in 0.9% NaCl; Invitrogen) to prevent bacterial contamination of gram-positive and gram-negative bacteria. In CHO-WTA11 culture medium 250 μg/ml zeocin (Invitrogen) was added as a selection marker, while CHO-PAM28 culture medium was supplemented with 5 μg/ml puromycin to select cells stably expressing apoaequorin. All cell culture media were supplemented with 10% fetal bovine serum (inactivated at […]; Sigma-Aldrich).
(§2) Cells were cultured in vitro as a monolayer at 37°C with a constant supply of 5% CO2 and were subcultivated twice a week. Transfections of cells were performed in T75 flasks at 60–80% confluency. Transfection reagent for CHO cells was prepared by combining 3.75 ml Opti-MEM I (Invitrogen), 7.5 μg plasmid DNA and 18.75 μl of Plus Reagent (Invitrogen). After gently mixing and 5 min incubation at room temperature 45 μl of Lipofectamine LTX was added to the mixture. This transfection medium was incubated for 30 min at room temperature and added dropwise to the cells, supplemented with 3 ml of fresh culture medium. HEK 293T cells were cotransfected with a receptor construct (6 μg) and CRE-luciferase reporter construct (3 μg), consisting of the open reading frame of the luciferase gene, downstream of a multimerized cAMP-response-element (CRE) and promoter. After transfection, cells were grown overnight before an additional 20 ml of culture medium was supplemented. Cells were again incubated overnight for a final growth phase before luminescence screens were performed.
(§3) The aequorin luminescence assay was used to measure Ca^2+ signaling in CHO cell lines. Cells were detached using phosphate buffered saline (PBS) containing 0.2% EDTA and collected in 10 ml of DMEM/F-12 (without phenol red, with L-glutamine and 10 mM HEPES; Gibco). The viable cells were quantified using a NucleoCounter NC-100 (Chemometic). Cells were pelleted by 4 min centrifugation at 800 rpm at room temperature and resuspended in DMEM/BSA (DMEM/F-12 without phenol red, with L-glutamine and 10 mM HEPES, 0.1% bovine serum albumin) at a concentration of 5×10^6 cells/ml. Cells were then shielded from light and Coelenterazine H (Invitrogen) was added at a final concentration of 5 μM. Cells were gently shaken at room temperature for 4 h under dark conditions, allowing the aequorin holoenzyme to be reconstituted. After a 10-fold dilution in DMEM/BSA, cells were incubated another 30 min under the same conditions. Pharmacological ligands were dissolved in DMEM/BSA and 50 μl of ligand was added to wells of a 96-well plate. Wells containing 50 μl of DMEM/BSA were used as a negative control, while wells containing 1 μM of ATP served as positive control. Incubated cells were added to the wells of the 96-well plate and light emission was measured for 30 s using a Mithras LB940 (Berthold Technologies). After 30 s Triton X-100 (0.2% in DMEM/BSA) was added, lysing the cells and thus serving as an internal reference. Light emission was measured for an additional 8 s after Triton X-100 was introduced in the wells. Light emission from each well was calculated relative to the total response (ligand+Triton X-100) using the output file of Mikrowin2000 software (Mikrotek). Further analysis was done in Graphpad Prism 5.

Trica-SKR2 [2] = assay: Aequorin-luminescence assay, CHO-WTA11 cells (Gα16) transfected with Trica-SKR2; format: cell-based, Tribolium castaneum; conditions: aequorin bioluminescence
Protocol: as §1, §2, §3

Trica-SKR1 [3] = assay: Aequorin-luminescence assay, CHO-PAM28 cells (no Gα16) transfected with Trica-SKR1; format: cell-based, Tribolium castaneum; conditions: CHO-PAM28 cells without Gα16; aequorin bioluminescence (Ca2+); three independent measurements in duplicate; read-out: EC50 for receptor activation in CHO-PAM28 cells, Trica-SKR1
Protocol: (§4) General pharmacological studies were performed in Chinese Hamster Ovary (CHO) WTA11 cells, stably coexpressing apoaequorin, a zeocin resistance gene and the promiscuous Gα16, which couples most agonist-induced GPCRs to the phospholipase C and Ca^2+ pathway irrespective of their natural signaling cascade. CHO-PAM28 cells stably expressing apoaequorin and a puromycin resistance gene but not Gα16 and HEK293T cells (Invitrogen) were used to determine possible effects on Ca^2+ and/or cAMP second messenger systems, respectively. […]
(§5) Cells were cultured in vitro as a monolayer at 37°C with a constant supply of 5% CO2 and were subcultivated twice a week. […] HEK 293T cells were cotransfected with a receptor construct (6 μg) and CRE-luciferase reporter construct (3 μg), consisting of the open reading frame of the luciferase gene, downstream of a multimerized cAMP-response-element (CRE) and promoter. […] Cells were again incubated overnight for a final growth phase before luminescence screens were performed.
(§6) The aequorin luminescence assay was used to measure Ca^2+ signaling in CHO cell lines. […] The viable cells were quantified using a NucleoCounter NC-100 (Chemometic). […] Incubated cells were added to the wells of the 96-well plate and light emission was measured for 30 s using a Mithras LB940 (Berthold Technologies). […]

Trica-SKR2 [4] = assay: Aequorin-luminescence assay, CHO-PAM28 cells (no Gα16) transfected with Trica-SKR2; format: cell-based, Tribolium castaneum; conditions: CHO-PAM28 cells without Gα16; aequorin bioluminescence (Ca2+); three independent measurements in duplicate; read-out: EC50 for receptor activation in CHO-PAM28 cells, Trica-SKR2
Protocol: as §4, §5, §6

Trica-SKR1 [5] = assay: CRE-luciferase reporter-gene assay (cAMP), HEK293T cells transfected with Trica-SKR1; format: cell-based, Tribolium castaneum; conditions: HEK293T cells cotransfected with CRE-luciferase; 200 μM IBMX; 3–4 h at 37°C; six independent measurements in duplicate; read-out: EC50, luciferase bioluminescence (cAMP), Trica-SKR1
Protocol: as §4, §5
(§7) The luciferase reporter-gene assay was used to quantify positive or negative coupling of the receptor to cAMP in HEK293T cells. Cotransfected HEK293T cells were detached and the viable cells were quantified using the NucleoCounter NC-100 (Chemometic) as described for CHO cells. […] Data were analyzed as described for CHO cells.

Trica-SKR2 [6] = assay: CRE-luciferase reporter-gene assay (cAMP), HEK293T cells transfected with Trica-SKR2; format: cell-based, Tribolium castaneum; conditions: HEK293T cells cotransfected with CRE-luciferase; 200 μM IBMX; 3–4 h at 37°C; three independent measurements in duplicate; read-out: EC50, luciferase bioluminescence (cAMP), Trica-SKR2
Protocol: as §4, §5, §7

[7] = system: CHO-PAM28 cells transfected with empty pcDNA3.1/V5-His-TOPO TA expression vector; assay: Aequorin-luminescence assay, CHO-PAM28 cells transfected with empty expression vector; format: cell-based, Chinese Hamster; conditions: aequorin bioluminescence
Protocol: as §4, §5, §6

[8] = system: HEK293T cells transfected with empty pcDNA3.1/V5-His-TOPO TA expression vector; assay: CRE-luciferase reporter-gene assay, HEK293T cells transfected with empty expression vector; format: cell-based; conditions: CRE-luciferase bioluminescence
Protocol: as §4, §5, §7

[9] = peptide at 1 μM, relative to sTrica-SK(5–13) at 1 μM = 100%, at least three biological repeats, each in duplicate

FDDY(SO3H)GHMRFa [sTrica-SK(5–13), sulfated C-terminal fragment of T. castaneum SK comprising amino acids 5–13, reference compound]
concentration at which maximal response was attained, Trica-SKR1 (Trica-SKR1 [1]): 100 nM | EC50 (Trica-SKR1 [1]; 1 fM to 1 μM, ± 95% confidence interval, three independent measurements in duplicate): 0.0995 ± 0.028 nM | % Trica-SKR1 (relative activation) (Trica-SKR1 [1]; [9]): 100.0% | concentration at which maximal response was attained, Trica-SKR2 (Trica-SKR2 [2]): 100 nM | EC50 (Trica-SKR2 [2]; 1 fM to 1 μM, three independent measurements in duplicate): 0.524 ± 0.2 nM | % Trica-SKR2 (relative activation) (Trica-SKR2 [2]; [9]): 100.0% | EC50 (Trica-SKR1 [3]): 0.0585 ± 0.024 nM | EC50 (Trica-SKR2 [4]): 1.61 ± 0.45 nM | EC50 (Trica-SKR1 [5]): 0.0049 ± 0.0042 nM | EC50 (Trica-SKR2 [6]): 1.4 ± 0.3 nM | signal in empty-vector transfected CHO-PAM28 cells [7]: no signal was observed | signal in empty-vector transfected HEK293T cells [8]: no signal was observed
